Reference: ChEMBL document CHEMBL1201862, “PubChem BioAssay data set” (2004)
Activity calls are given as the source filed them.

Columns and labels:
[1] = M. tuberculosis growth inhibition, HTS (AID 449762); assay type: functional
[2] = microbe, parasite or virus in culture; assay type: functional; settings: Mycobacterium tuberculosis
Cytochrome P450 3A4 = Cytochrome P450 3A4 (Homo sapiens, UniProt P08684); settings: Potency;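 also: confirmatory qHTS run detecting inhibitors and substrates of CYP3A4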
Cytochrome P450 3A4, sequence (P08684 whole entry): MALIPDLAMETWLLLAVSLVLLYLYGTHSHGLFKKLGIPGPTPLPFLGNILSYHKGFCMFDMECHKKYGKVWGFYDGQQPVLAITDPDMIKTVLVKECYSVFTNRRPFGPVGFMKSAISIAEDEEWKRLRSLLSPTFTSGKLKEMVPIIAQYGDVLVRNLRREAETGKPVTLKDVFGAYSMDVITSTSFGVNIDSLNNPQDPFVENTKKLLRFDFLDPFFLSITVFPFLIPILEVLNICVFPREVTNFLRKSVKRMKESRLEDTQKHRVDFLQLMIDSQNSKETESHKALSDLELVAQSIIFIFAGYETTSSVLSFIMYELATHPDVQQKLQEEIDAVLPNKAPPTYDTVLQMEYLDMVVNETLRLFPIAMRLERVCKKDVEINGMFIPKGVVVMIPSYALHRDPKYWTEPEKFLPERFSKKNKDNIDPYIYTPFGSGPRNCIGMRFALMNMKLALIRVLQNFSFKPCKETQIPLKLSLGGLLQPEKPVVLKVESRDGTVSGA

Ephrin type-A receptor 4 = Ephrin type-A receptor 4 (Mus musculus, UniProt Q03137); assay: inhibitors of EphA4 binding to KYL peptide, primary screen, biochemical, colorimetric, mouse EphA4 (AID 689); assay type: functional
Ephrin type-A receptor 4, sequence (Q03137 whole entry): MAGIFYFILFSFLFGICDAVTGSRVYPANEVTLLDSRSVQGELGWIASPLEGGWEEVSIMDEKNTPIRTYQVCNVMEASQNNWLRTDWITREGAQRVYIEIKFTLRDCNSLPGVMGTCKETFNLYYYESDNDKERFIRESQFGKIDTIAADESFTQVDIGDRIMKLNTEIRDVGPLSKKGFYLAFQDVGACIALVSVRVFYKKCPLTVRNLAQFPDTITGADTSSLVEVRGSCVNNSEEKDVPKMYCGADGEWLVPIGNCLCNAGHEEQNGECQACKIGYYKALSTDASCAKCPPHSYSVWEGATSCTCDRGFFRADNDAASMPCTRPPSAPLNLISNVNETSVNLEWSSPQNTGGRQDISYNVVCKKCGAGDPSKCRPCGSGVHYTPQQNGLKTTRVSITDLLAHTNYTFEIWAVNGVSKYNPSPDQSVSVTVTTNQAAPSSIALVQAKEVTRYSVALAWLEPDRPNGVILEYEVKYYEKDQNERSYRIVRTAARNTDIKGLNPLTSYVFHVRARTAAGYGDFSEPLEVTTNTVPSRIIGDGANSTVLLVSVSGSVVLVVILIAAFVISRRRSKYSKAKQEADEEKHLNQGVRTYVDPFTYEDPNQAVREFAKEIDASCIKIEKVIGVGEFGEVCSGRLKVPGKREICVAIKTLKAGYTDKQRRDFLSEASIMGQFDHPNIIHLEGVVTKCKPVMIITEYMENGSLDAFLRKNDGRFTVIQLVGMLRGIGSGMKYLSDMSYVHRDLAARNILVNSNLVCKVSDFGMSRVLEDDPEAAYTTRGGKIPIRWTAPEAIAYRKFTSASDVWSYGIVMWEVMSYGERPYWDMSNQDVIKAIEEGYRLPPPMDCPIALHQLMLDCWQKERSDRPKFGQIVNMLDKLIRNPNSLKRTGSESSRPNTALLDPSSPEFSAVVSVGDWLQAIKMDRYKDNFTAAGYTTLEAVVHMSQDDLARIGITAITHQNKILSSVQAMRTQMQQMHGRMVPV

[3] = inhibitors of Vif binding to APOBEC3G peptide, primary screen, biochemical, TR-FRET, GST-Vif 1-94, biotin-A3G peptide, dose response retest (AID 1117319); assay type: functional;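 also: TR-FRET signal of purified GST-Vif binding a biotinylated A3G peptide; inhibitors lower the FRET signal by blocking Vif and A3G binding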
CHO-K1 = assay: (§1) Counterscreen for antagonists of the orexin 1 receptor (OX1R; HCRTR1): Homogeneous time resolved fluorescence (HTRF)-based cell-based dose response assay to identify antagonists of the parental CHO-K1 cell line. [Related pubchem assays (depositor defined):AID434989, AID435008, AID463079, AID485270, AID492963, AID492964, AID492965, AID493232, AID504699, AID504701]; assay type: functional; settings: Cricetulus griseus
[4] = as §1, with “Fluorescence-based” for “Homogeneous time resolved fluorescence (HTRF)-based”, “cell-based high throughput” for “cell-based”, “CHO” for “CHO-K1”; assay type: functional
[5] = target: T1, Orexin/Hypocretin receptor type 1 (Homo sapiens, UniProt O43613); assay: Homogeneous Time Resolved Fluorescence (HTRF)-based cell-based high throughput dose response assay for antagonists of the orexin 1 receptor (OX1R; HCRTR1). [Related pubchem assays (depositor defined):AID434989, AID435008, AID463079, AID485270, AID492963, AID492964, AID492965, AID493232, AID504717, AID504718]; assay type: functional
T1 sequence (O43613 whole entry): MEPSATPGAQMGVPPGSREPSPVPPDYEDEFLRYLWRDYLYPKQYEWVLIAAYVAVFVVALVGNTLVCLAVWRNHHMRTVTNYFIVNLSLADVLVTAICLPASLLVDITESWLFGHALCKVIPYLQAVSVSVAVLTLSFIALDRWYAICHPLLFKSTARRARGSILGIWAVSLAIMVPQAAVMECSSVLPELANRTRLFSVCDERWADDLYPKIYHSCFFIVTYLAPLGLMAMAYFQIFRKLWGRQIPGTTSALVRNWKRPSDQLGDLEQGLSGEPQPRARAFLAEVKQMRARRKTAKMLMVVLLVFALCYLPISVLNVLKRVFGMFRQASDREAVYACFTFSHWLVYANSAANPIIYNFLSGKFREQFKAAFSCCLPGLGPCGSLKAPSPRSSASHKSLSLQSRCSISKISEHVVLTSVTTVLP

[6] = target: T1, Orexin/Hypocretin receptor type 1; assay: Fluorescence-based cell-based high throughput dose response assay for antagonists of the orexin 1 receptor (OX1R; HCRTR1). [Related pubchem assays (depositor defined):AID434989, AID435008, AID463079, AID485270, AID492963, AID492964, AID492965, AID493232, AID504717, AID504718]; assay type: functional
Orexin receptor type 2 [7] = target: T2, Orexin receptor type 2 (Homo sapiens, UniProt O43614); assay: Counterscreen assay for antagonists of the orexin 1 receptor (OX1R; HCRTR1): Fluorescence-based cell-based dose response assay for antagonists of the orexin 2 receptor (OX2R; HCRTR2), run by assay provider.; assay type: functional
T2 sequence (O43614 whole entry): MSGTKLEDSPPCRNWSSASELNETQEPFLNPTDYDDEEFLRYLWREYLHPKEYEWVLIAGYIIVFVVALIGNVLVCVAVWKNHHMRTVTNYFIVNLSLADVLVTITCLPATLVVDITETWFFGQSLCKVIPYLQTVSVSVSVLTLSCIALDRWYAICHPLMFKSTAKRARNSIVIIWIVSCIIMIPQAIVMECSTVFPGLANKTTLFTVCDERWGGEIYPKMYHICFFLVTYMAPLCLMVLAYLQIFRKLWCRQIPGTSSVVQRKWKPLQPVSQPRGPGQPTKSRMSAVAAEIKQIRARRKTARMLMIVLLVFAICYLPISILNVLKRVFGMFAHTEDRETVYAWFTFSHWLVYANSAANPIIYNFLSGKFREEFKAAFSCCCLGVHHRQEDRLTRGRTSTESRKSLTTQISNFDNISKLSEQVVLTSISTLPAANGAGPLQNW

Orexin receptor type 2 [8] = target: T2, Orexin receptor type 2; assay: Counterscreen assay for antagonists of the orexin 1 receptor (OX1R; HCRTR1): Homogeneous Time Resolved Fluorescence (HTRF)-based cell-based dose response assay for antagonists of the orexin 2 receptor (OX2R; HCRTR2), run by assay provider.; assay type: functional
[9] = target: T3, Oxysterols receptor LXR-beta (Homo sapiens, UniProt P55055); assay type: functional, cell-based;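 also: Cell-based luminescence dose-response assay of agonist activity at LXR, run as a confirmatory counterscreen to a daf-12 agonist screen; HEK293 cells with Gal4-LXR fusion and GAL4-driven luciferase reporter; agonist potency from rising luciferase signal of a Gal4-LXR reporter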
T3 sequence (P55055 whole entry): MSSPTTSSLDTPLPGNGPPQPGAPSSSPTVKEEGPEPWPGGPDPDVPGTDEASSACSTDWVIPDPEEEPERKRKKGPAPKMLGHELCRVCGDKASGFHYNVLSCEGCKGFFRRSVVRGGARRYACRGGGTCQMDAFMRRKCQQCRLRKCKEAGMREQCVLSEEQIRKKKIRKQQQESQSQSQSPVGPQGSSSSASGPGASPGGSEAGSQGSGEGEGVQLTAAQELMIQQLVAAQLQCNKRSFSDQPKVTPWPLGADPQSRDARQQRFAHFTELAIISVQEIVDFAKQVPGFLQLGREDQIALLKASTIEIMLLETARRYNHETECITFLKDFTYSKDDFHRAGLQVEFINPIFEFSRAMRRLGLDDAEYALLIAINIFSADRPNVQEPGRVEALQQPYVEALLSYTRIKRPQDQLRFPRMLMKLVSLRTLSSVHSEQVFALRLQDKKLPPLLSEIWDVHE

Kallikrein-7 = Kallikrein-7 (Homo sapiens, UniProt P49862); assay: Fluorescence Intensity-based biochemical primary high throughput dose response assay to identify activators of kallikrein-7 (K7) zymogen.
Kallikrein-7, sequence (P49862 whole entry): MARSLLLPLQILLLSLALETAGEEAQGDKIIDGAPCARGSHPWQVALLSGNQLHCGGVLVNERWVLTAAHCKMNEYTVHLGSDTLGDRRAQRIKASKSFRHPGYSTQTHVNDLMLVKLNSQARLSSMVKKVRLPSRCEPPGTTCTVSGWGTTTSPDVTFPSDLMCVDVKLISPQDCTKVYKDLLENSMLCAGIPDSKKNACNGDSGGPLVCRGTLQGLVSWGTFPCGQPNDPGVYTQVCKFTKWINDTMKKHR

[10] = Luminescence-based dose response cell-based high throughput screening assay for cytotoxic compounds using the IEC-6 intestinal epithelial cell line. [Related pubchem assays: 1858 (Summary AID.), 1825 (Counterscreen.), 1907 (Confirmation screen.)]; assay type: functional
[11] = cytotoxicity in HEK-293T cells, dose response, cytotoxicity control for BCR NF-kB inhibitor project, luminescence, B-cell screen hits (AID 489021); assay type: functional, cell-based;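 also: HEK-293T cells carrying an NF-kB luciferase reporter; cells exposed to compound for about 14 hours before viability readout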
[12] = A cytotoxicity screen of small molecule inhibitors of the PhoP region in Salmonella typhi identified in the primary screen. [Related pubchem assays: 1850, 1864, 1985 ]; assay type: functional
[13] = M. tuberculosis H37Rv growth inhibitors, H37Rv strain (AID 1626); assay type: functional

With `COC(=O)c1cccc(C#CC(NP(=O)(c2ccccc2)c2ccccc2)c2ccccc2)c1` (stereo not given) the IC50 [1] was > 100 µM (active), the CC50 [2] was > 40 µM (active) and the AC50 (Cytochrome P450 3A4) was 12.6 µM (inconclusive).
In the case of `CCCOc1ccc(-c2nn(-c3ccccc3)cc2/C=C2\SC(=S)N(C3CCS(=O)(=O)C3)C2=O)cc1` (stereo not given), the IC50 (Ephrin type-A receptor 4) was 12 µM (active).
For `COc1ccc(/C=N/NC2=NC(=O)C(c3ccccc3)S2)c(OC)c1` (stereo not given), the IC50 [3] was > 100 µM (active).
In the case of `Nn1c(-c2cccs2)nc2sc3c(c2c1=O)CCCC3`, the IC50 (CHO-K1) was > 66.2 µM (inactive), the IC50 [4] was > 49.7 µM (inactive) and the IC50 [5] was 2.98 µM (active). For the same compound, the IC50 [6] was 18.1 µM (inactive), the IC50 (Orexin receptor type 2 [7]) was 31.2 µM (inactive) and the IC50 (Orexin receptor type 2 [8]) was > 50 µM (inactive). The EC50 [9] was > 67.5 µM (inactive) and the EC50 (cells) was > 67.5 µM (inactive).
In the case of `COCCNC(=O)/C(C#N)=C/c1c(N2CCN(c3ccc(OC)cc3)CC2)nc2c(C)cccn2c1=O`, the EC50 (Kallikrein-7) was > 69.5 µM (inactive).
In the case of `Cc1[nH]c2ccccc2c1/C=N/Nc1nc(Nc2ccc(F)cc2)nc(N2CCOCC2)n1`, the IC50 [10] was 1.09 µM (active) and the IC50 [11] was 51.2 µM (inactive).
For `Cc1cc(N=Nc2ccc(C)c(N=Nc3cc(C)c(N)cc3N)c2)c(N)cc1N`, the EC50 [12] was > 50 µM (active), the EC50 [9] was > 67.5 µM (inactive) and the EC50 (cells) was > 67.5 µM (inactive).
In the case of `CCOC(=O)c1ccc(NC(=O)CSc2nnc(COc3ccccc3OC)n2C)cc1`, the IC50 [13] was > 100 µM (active).
